These results are taken from patent US9827275B2, “Immunostimulatory compositions and methods of use thereof” (Comvita New Zealand Ltd., priority 2010, dated 2017).

Experiment [1] deals with THP-1 cells. The experiment can be described thus: TNF-α release/production from THP-1 cell line. Format: cell-based. To be noted: FIG. 8, THP-1 cell line. The procedure: In this example the ability of three New Zealand honeys to elicit the release of TNF-α from the monocytic cell lines THP-1 and U937 were investigated and the bioactive component responsible identified.
In this example, the effect or otherwise of pure AGP was analysed to determine how AGP influences cytokine stimulation as exemplified by TNF-α production from THP-1 cell line.
Varying doses of LPS were tested against THP-1 cell line and the cytokine response measured. […] The results further reinforce the presence of type II AG compounds and their influence on inflammation.

In experiment [2] the test system is primed macrophage cells. The experiment can be described thus: cytokine TNFα response of primed macrophage cells. To be noted: added alone to primed macrophage cells. Type of experiment: cell-based.
Description: Macrophage cells were then matured to a point where they were primed and ready to respond to an input. Adding varying levels of LPS and measuring the cytokine TNFα response confirmed the maturity and readiness of the macrophage cells.
A variety of different honeys were then added to the primed macrophage cells and the cytokine response measured to determine if there were any trends. ethylglyoxal (MGO) was also added with or without honey to determine if this ingredient of manuka honey also influenced the immune stimulation effects. A sugar solution was also used to determine if this had any effect as well.
Honey samples (5% (w/v) and LPS (1000 ng/mL) were prepared in water and heated at 80° C. for 30 min in a shaking water bath. After heat processing, further dilutions were performed in RPMI medium and the resulting honey tested for cytokine response.

Each structure is given as a SMILES string.

`CC(=O)C=O` [MGO, methylglyoxal]: in experiment [1], the pro-inflammatory response result is reported as “no significant pro-inflammatory response”. The “impact on immune stimulation (cytokine response)” value in experiment [2] is recorded as “no impact”.
